Test results reported in patent US20100311877A1, “NOVEL TRIAZINE DERIVATIVE, ULTRAVIOLET ABSORBER, AND RESIN COMPOSITION” (FUJIFILM Corporation, priority 2009, published 2010).

Key:
[1] = Measurement of pKa (perchloric acid titration, absorption spectrum); assay type: physicochemical; details: in acetonitrile, 70% perchloric acid (acetic acid as solvent) added dropwise; ratio of triazine-free compound and proton adduct from absorbance at λmax
Description: Exemplified compound (1) was dissolved in acetonitrile to give its absorption coefficient of 1. […] At that time, a solution absorption spectrum was measured and a ratio of a triazine-free compound and a proton adduct at each pH was computed from the absorbance at λmax. The value of pKa was determined from a point at which the ratio became 1. […] The absorption spectrum was measured using a spectrophotometer “UV-3600” (trade name; product of Shimadzu Corp), while pH was measured using a pH meter “H[…]” (trade name; product of Toa Denpa Kogyo).

[2] = Light resistance of PMMA polymer film (remaining amount after metal halide lamp exposure); assay type: physicochemical; details: 50-μm PMMA film on glass, 0.2 mass % compound in coating solution, illuminance 90 mW/cm^2, 63° C., humidity 50%, 400 hours after exposure, transmittance at maximum absorption wavelength
Description: A binder solution was prepared by dissolving 22 mass % of a PMMA resin (“[…] BR-80”, trade name; product of Mitsubishi Rayon) in methylene chloride. A coating solution was then prepared by dissolving 0.2 mass % of Exemplified compound (1) in the resulting binder solution. Using glass as a base material, the resulting coating solution was applied thereto with a 200 μm blade and dried at 100° C. for 10 minutes into a 50-μm thick coating to prepare a film. […] The absorbance of the film was measured with a spectrophotometer “UV-3600” (trade name; product of Shimadzu Corp). The film was exposed to light of a metal halide lamp (“Eye super UV tester”, trade name; product of Iwasaki Electric) under the conditions of illuminance of 90 mW/cm^2, temperature of 63° C., and humidity of 50%. The remaining amount of each compound 400 hours after exposure was measured. The remaining amount was computed in accordance with the following equation: Remaining amount(%)=100×(100-(transmittance after exposure))/(100-(transmittance before exposure)) The transmittance is a value measured at the maximum absorption wavelength of each compound.

Row | Structure (SMILES) | pKa [1] | Remaining amount (%) [2]
1 | CCCCCCOc1ccc(-c2nc(-c3ccccc3)nc(-c3ccccc3)n2)c(O)c1 [Comparative compound A] | -4.9 | 63%
2 | CCCCCCCCOc1ccc(-c2nc(-c3ccc(C)cc3C)nc(-c3ccc(C)cc3C)n2)c(O)c1 [Comparative compound B] | -4.4 | 21%
